This note sets out measurements from patent publication US12612410B2 (CHILDREN'S HOSPITAL MEDICAL CENTER, priority 2020, dated 2026).

One experiment relates to MOLM14 F691L cells. Briefly: MOLM14 F691L cell viability assay (Cell Titer Glo). It counts as cell-based. Conditions: Homo sapiens, MOLM-14, 48 h. Put shortly: (§1)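 MOLM14 cells carrying FLT3 D835Y or F691L were seeded at 1000 cells/well in RPMI-1640 with 20% FBS and dosed at 22 concentrations, 1:2 dilutions from 10 μM. Viability after 48 h by Cell Titer Glo luminescence; 2.3 μM bortezomib as cytotoxic control.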

The subject of experiment [1] is NF-κB. Briefly: NF-kB SEAP reporter assay in THP-1-Blue NF-κB cells, Pam3CSK4 stimulation. The class given is cell-based. Conditions: Pam3CSK4 1 ng/mL, read-out: NF-κB Pam3SCK4 IC50. How it is done:
(§2) THP-1-Blue NF-xB cells (InvivoGen) carrying a stable integrated NF-κB-inducible secreted embryonic alkaline phosphatase (SEAP) reporter construct were plated at a concentration of 1×10^5 cells per well. The cells were stimulated with Pam3CSK4 (1 ng/mL) or hIL1B (1 ng/mL). After 10-20 minutes, the cells were then treated with vehicle (DMSO) or serial dilutions of the test compounds (10 doses tested for each test compound, with a 1:10 dilution series starting at 1 μM or 3 μM) with a final volume of 200 μL for 24 hours at 37° C. After 24 hours, the cells were centrifuged and 20 μL supernatant was incubated with 180 μL QUANTI-Blue reagent at 37° C. for 30-60 minutes. The levels of NF-κB-induced was measured in a microplate reader at 620 nm.

In a further experiment the target is T1, IRAK4 (Homo sapiens, UniProt Q9NWZ3).
T1 sequence (Q9NWZ3 1-460): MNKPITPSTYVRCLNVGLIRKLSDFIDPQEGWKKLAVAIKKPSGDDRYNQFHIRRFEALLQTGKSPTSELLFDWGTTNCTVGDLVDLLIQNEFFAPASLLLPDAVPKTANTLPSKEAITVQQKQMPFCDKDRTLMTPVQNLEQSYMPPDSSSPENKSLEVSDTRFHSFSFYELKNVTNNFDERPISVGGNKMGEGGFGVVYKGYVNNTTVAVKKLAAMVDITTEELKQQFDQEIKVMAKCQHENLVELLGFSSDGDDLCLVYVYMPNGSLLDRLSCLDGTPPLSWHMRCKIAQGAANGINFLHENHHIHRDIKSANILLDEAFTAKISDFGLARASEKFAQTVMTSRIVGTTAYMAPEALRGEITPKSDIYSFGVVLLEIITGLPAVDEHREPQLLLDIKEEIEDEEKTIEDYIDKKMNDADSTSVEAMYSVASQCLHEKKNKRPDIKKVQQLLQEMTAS
Briefly: RBC HotSpot Kinase Assay, IRAK4. The following applies: isolated kinase, 33P-ATP. It counts as biochemical. Also noted: purchased Reaction Biology (RBC), HotSpot kinase assay. In short, it runs like this:
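Isolated recombinant kinase (possibly truncated or catalytic-domain form) was preincubated with compound for 20 min at room temp in 20 mM Hepes pH 7.5, 10 mM MgCl2, 1 mM EGTA, 0.01% Brij35, 1% DMSO with substrate; 33P-ATP started a 2 h room-temperature reaction, read by P81 filter binding.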

The next experiment deals with MOLM14 D835Y cells. The experiment can be described thus: MOLM14 D835Y cell viability assay (Cell Titer Glo). The class given is cell-based. Conditions: Homo sapiens, MOLM-14, 48 h. Put shortly: as §1
In experiment [2] the test system is NF-κB. Briefly: NF-kB SEAP reporter assay in THP-1-Blue NF-κB cells, hIL1B stimulation. The class given is cell-based. The following applies: hIL1B 1 ng/mL, read-out: NF-κB IL1B IC50. As to the method:
as §2

A value given as a limit tells only on which side of the number the result lay.

As for `FC(F)c1cn2c(-c3cccc(N[C@H]4CNCC[C@@H]4F)n3)cnc2cn1` [Compound 25, 6-(6-(difluoromethyl)imidazo[1,2-a]pyrazin-3-yl)-N-((3S,4S)-4-fluoropiperidin-3-yl)pyridin-2-amine], the IC50 is 74 nM in the experiment on MOLM14 F691L cells; 12 nM in the experiment on NF-κB [1] (24 h); 1 nM on IRAK4; 9 nM in the experiment with MOLM14 D835Y cells; 47 nM in the experiment on NF-κB [2] (24 h).

`CC(C)(O)c1cn2c(-c3cccc(N[C@@H]4CCCNC4)n3)cnc2cn1` [Compound 30, (R)-2-(3-(6-(piperidin-3-ylamino)pyridin-2-yl)imidazo[1,2-a]pyrazin-6-yl)propan-2-ol]: the IC50 was 381 nM in the experiment on MOLM14 F691L cells; 28 nM in the experiment on NF-κB [1] (24 hours); < 0.5 nM on IRAK4; 75 nM in the experiment on MOLM14 D835Y cells; 40 nM with NF-κB [2] (24 hours).

In the case of `CC(C)(O)c1cn2c(-c3cccc(N[C@H]4CNCC[C@@H]4F)n3)cnc2cn1` [Compound 31, 2-(3-(6-(((3S,4S)-4-fluoropiperidin-3-yl)amino)pyridin-2-yl)imidazo[1,2-a]pyrazin-6-yl)propan-2-ol], the concentration for half-maximal inhibition (IC50) with MOLM14 F691L cells was 249 nM; in the experiment on NF-κB [1] (24 h), 37 nM; at IRAK4, < 0.5 nM; in the experiment on MOLM14 D835Y cells, 63 nM; in the experiment with NF-κB [2] (24 h), 44 nM.

In the case of `CC(C)(O)c1cn2c(-c3nc(N[C@H]4CNCC[C@@H]4F)c(F)cc3F)cnc2cn1` [Compound 35, 2-(3-(3,5-difluoro-6-(((3S,4S)-4-fluoropiperidin-3-yl)amino)pyridin-2-yl)imidazo[1,2-a]pyrazin-6-yl)propan-2-ol], the IC50 with MOLM14 F691L cells worked out at 841 nM; in the experiment on NF-κB [1] (24 h), 23 nM; against IRAK4, 0.8 nM; with MOLM14 D835Y cells, 94 nM; in the experiment with NF-κB [2] (24 h), 88 nM.

With `F[C@H]1CNC[C@@H]1Nc1cccc(-c2cnc3cnc(C4CC4)cn23)n1` [Compound 50, 6-(6-cyclopropylimidazo[1,2-a]pyrazin-3-yl)-N-((3S,4S)-4-fluoropyrrolidin-3-yl)pyridin-2-amine], the half-inhibitory concentration (IC50) in the experiment on MOLM14 F691L cells was found to be 192 nM; with NF-κB [1] (24 h) it was 9 nM; at IRAK4, 0.6 nM; with MOLM14 D835Y cells it was 24 nM; in the experiment with NF-κB [2] (24 h) it was 11 nM.

As for `F[C@H]1CCNC[C@@H]1Nc1cccc(-c2cnc3cnc(C4CC4)cn23)n1` [Compound 51, 6-(6-cyclopropylimidazo[1,2-a]pyrazin-3-yl)-N-((3S,4S)-4-fluoropiperidin-3-yl)pyridin-2-amine], the IC50 in the experiment on MOLM14 F691L cells was determined as 53 nM; with NF-κB [1] (24 h) it was 20 nM; against IRAK4 it was 1 nM; in the experiment with MOLM14 D835Y cells, 9 nM; in the experiment on NF-κB [2] (24 h) it was 57 nM.

In the case of `O=S1(=O)CCCN1c1cn2c(-c3cccc(N[C@H]4CNCC[C@@H]4F)n3)cnc2cn1` [Compound 97, 2-(3-(6-(((3S,4S)-4-fluoropiperidin-3-yl)amino)pyridin-2-yl)imidazo[1,2-a]pyrazin-6-yl)isothiazolidine 1,1-dioxide], the concentration for half-maximal inhibition (IC50) worked out at 26 nM in the experiment with MOLM14 F691L cells; 83 nM in the experiment on NF-κB [1] (24 hours); 6 nM on IRAK4; 5 nM in the experiment on MOLM14 D835Y cells; 164 nM in the experiment on NF-κB [2] (24 hours).

Regarding `O=C1CCCN1c1cn2c(-c3nc(N[C@H]4CNCC[C@@H]4F)c(F)cc3F)cnc2cn1` [Compound 107, 1-[3-[3,5-difluoro-6-[[(3S,4S)-4-fluoro-3-piperidyl]amino]-2-pyridyl]imidazo[1,2-a]pyrazin-6-yl]pyrrolidin-2-one], the concentration for half-maximal inhibition (IC50) amounted to 97 nM in the experiment on MOLM14 F691L cells; 37 nM with NF-κB [1] (24 hours); 38 nM at IRAK4; 21 nM in the experiment with MOLM14 D835Y cells; 357 nM with NF-κB [2] (24 hours).

As to `O=C1NCCN1c1cn2c(-c3cccc(N[C@H]4CNCC[C@@H]4F)n3)cnc2cn1` [Compound 118, 1-(3-(6-(((3S,4S)-4-fluoropiperidin-3-yl)amino)pyridin-2-yl)imidazo[1,2-a]pyrazin-6-yl)imidazolidin-2-one], the IC50 in the experiment on MOLM14 F691L cells came to 37 nM; in the experiment on NF-κB [1] (24 h), 101 nM; on IRAK4, 4 nM; in the experiment on MOLM14 D835Y cells it was 9 nM; in the experiment with NF-κB [2] (24 h), 406 nM.

As for `O=C1CCCN1c1cn2c(-c3cccc(N[C@H]4CNCC[C@@H]4F)n3)cnc2cn1` [Compound 119, 1-(3-(6-(((3S,4S)-4-fluoropiperidin-3-yl)amino)pyridin-2-yl)imidazo[1,2-a]pyrazin-6-yl)pyrrolidin-2-one], the IC50 with MOLM14 F691L cells was 54 nM; with NF-κB [1] (24 hours), 56 nM; on IRAK4 it was 10 nM; with MOLM14 D835Y cells it was 19 nM; in the experiment on NF-κB [2] (24 hours), 1290 nM.

As for `O=C1CCCN1c1cn2c(-c3cccc(N[C@H]4CNC[C@@H]4F)n3)cnc2cn1` [Compound 121, 1-(3-(6-(((3S,4S)-4-fluoropyrrolidin-3-yl)amino)pyridin-2-yl)imidazo[1,2-a]pyrazin-6-yl)pyrrolidin-2-one], the IC50 in the experiment with MOLM14 F691L cells worked out at 173 nM; in the experiment with NF-κB [1] (24 h) it was 54 nM; against IRAK4, 5 nM; with MOLM14 D835Y cells, 23 nM; in the experiment with NF-κB [2] (24 h) it was 76 nM.

Take `CC(C)(C)c1cn2c(-c3cccc(N[C@@H]4CCCNC4)n3)cnc2cn1` [Compound 129, (R)-6-(6-(tert-butyl)imidazo[1,2-a]pyrazin-3-yl)-N-(piperidin-3-yl)pyridin-2-amine]: the IC50 in the experiment on MOLM14 F691L cells stood at 163 nM; with NF-κB [1] (24 hours), 11 nM; at IRAK4 it was 1 nM; in the experiment with MOLM14 D835Y cells, 33 nM; in the experiment on NF-κB [2] (24 hours), 70 nM.
